Here are results for 3 compounds from patent publication US6369251B1, “Method for purification of polyprenyl compounds” (Nikken Chemicals Co., Ltd., priority 1999, dated 2002).

Each structure is given as a SMILES string.

One series relates to hepatic carcinoma. Conditions: known from literature; cited from earlier work.
Series [1] can be described thus: Determination of peroxide value by the British Pharmacopeia method (iodometric titration). Conditions: sample after recrystallization; about 1 g sample, titration with sodium thiosulfate. The class given is physicochemical. The method, then:
The results of purities and determined peroxide values of (2E, 4E, 6E, 10E)-3,7,11,15-tetramethyl-2,4,6,10,14-hexadecapentaenoic acid obtained in Example 1 and Reference Example 3 are shown in Table 1.
The determination of the peroxide values was performed by the method described in the British Pharmacopeia. About 1 g of each sample was accurately weighed in a stoppered Erlenmeyer flask, and the sample was added with chloroform (15 mL) and dissolved. The solution was added with acetic acid (20 mL), and the mixture was shaken gently. Air in the flask was sufficiently substituted with argon atmosphere, and the mixture was added with 1 mL of saturated potassium iodide solution prepared just before use, and the mixture was left stand for 10 minutes in a dark place. Then, the mixture was added with 30 mL of water and shaken vigorously. The liberated iodine was titrated with […] sodium thiosulfate solution (indicator: 2 mL of the starch test solution). The titration was terminated when the purplish red color of the solution disappeared. Correction was made by performing a blank test in the same manner.
The peroxide value was calculated by using the following equation.
Peroxide value (meq/kg)=10f(a−b)/Sampled weight (g) a: Titration volume (mL) of 0.01 mol/L Na2S2O3 solution b: Titration volume (mL) of 0.01 mol/L Na2S2O3 solution in the blank test f: Factor of 0.01 mol/L Na2S2O3 solution

With `CC(C)=CCC/C(C)=C/CC/C(C)=C/C=C/C(C)=C/C(=O)O` [(2E, 4E, 6E, 10E)-3,7,11,15-Tetramethyl-2,4,6,10,14-hexadecapentaenoic acid], the “effect on recurrence of hepatic carcinoma” value with hepatic carcinoma is “suppressing effect on recurrence of hepatic carcinoma”.
In series [1], `CC(C)=CCC/C(C)=C/CC/C(C)=C/C=C/C(C)=C/C(=O)O` [Example 1, (2E, 4E, 6E, 10E)-3,7,11,15-tetramethyl-2,4,6,10,14-hexadecapentaenoic acid] showed a Peroxide value of 0 meq/kg.
Still for that read-out and setting: under `CC(C)=CCC/C(C)=C/CC/C(C)=C/C=C/C(C)=C/C(=O)O` [Reference Example 3, (2E, 4E, 6E, 10E)-3,7,11,15-tetramethyl-2,4,6,10,14-hexadecapentaenoic acid] stands 3.0 meq/kg.
